Laboratory results as given in publication PMC7714489 (Journal of medicinal chemistry, 2015).

Columns and labels:
Format in all cases: cell-based
[1] = test system: HepG2 cells; assay: Lactate production assay; details: 10 μM, HepG2, 14 days
[2] = test system: subgenomic HCV replicon in Huh-7 cells; assay: HCV subgenomic replicon assay in Huh-7 cells; details: Huh-7 replicon
[3] = test system: PC3 cells (a human prostate cancer cell line); assay: Toxicity in PC3 cells; details: 100 μM; data not shown
[4] = test system: thymidine uptake; assay: Effect on thymidine uptake; details: 100 μM; data not shown
[5] = test system: cellular GAPDH levels; assay: Effect on cellular GAPDH levels; details: 100 μM; data not shown

| SMILES | cell death in lactic acid experiment [1] | inhibition of HCV RNA replication (in words) [2] | toxicity in PC3 cells [3] | effect on thymidine uptake [4] | effect on cellular GAPDH levels [5] |
| --- | --- | --- | --- | --- | --- |
| COc1nc(N)nc2c1ncn2[C@@H]1O[C@H](COP(=O)(N[C@@H](C)C(=O)OCC(C)(C)C)Oc2cccc3ccccc23)[C@@H](O)[C@@]1(C)O (stereo partly drawn) [compound 1, reference compound] | excessive cell death | nanomolar potency |  |  |  |
| CCOC(=O)CCc1ccccc1O[P@@](=O)(N[C@@H](C)C(=O)OCC)OC[C@H]1O[C@@H](n2cnc3c(N)nc(N)nc32)[C@](C)(O)C1O (stereo in doubt) [15b(Rp), Ethyl 3-(2-(((R)-(((2R,3R,4R,5R)-5-(2,6-Diamino-9H-purin-9-yl)-3,4-dihydroxy-4-methyltetrahydrofuran-2-yl)methoxy)(((S)-1-ethoxy-1-oxopropan-2-yl)amino)phosphoryl)oxy)phenyl)-propanoate] |  |  | did not observe any toxicity | did not observe | did not observe |
| CCOC(=O)CCc1ccccc1OP(=O)(OC[C@H]1O[C@@H](n2cnc3c(N)nc(N)nc32)[C@](C)(O)[C@@H]1O)Oc1ccccc1CCC(=O)OCC [compound 18] |  | inactive |  |  |  |
